What was measured:
[1] = target: T1, PPARγ LBD / TRAP220/MED1 coactivator peptide (Homo sapiens, UniProt P37231); test: TR-FRET coregulator interaction assay, TRAP220/MED1 coactivator peptide; type: biochemical; conditions: for IC50: 4 nM 6xHis-PPARγ LBD, 400 nM FITC-TRAP220/MED1 peptide, 1 h at 25 °C, n = 3, read-out: MED1 TR-FRET IC50 (decrease in TRAP220/MED1 peptide interaction)
T1 construct: residues 203–477 (isoform 1 numbering) with a TEV-cleavable N-terminal hexa-his-tag; made in house; host or cells: Escherichia coli BL21(DE3), pET46 plasmid
T1 sequence (P37231 203-477 isoform P37231-2): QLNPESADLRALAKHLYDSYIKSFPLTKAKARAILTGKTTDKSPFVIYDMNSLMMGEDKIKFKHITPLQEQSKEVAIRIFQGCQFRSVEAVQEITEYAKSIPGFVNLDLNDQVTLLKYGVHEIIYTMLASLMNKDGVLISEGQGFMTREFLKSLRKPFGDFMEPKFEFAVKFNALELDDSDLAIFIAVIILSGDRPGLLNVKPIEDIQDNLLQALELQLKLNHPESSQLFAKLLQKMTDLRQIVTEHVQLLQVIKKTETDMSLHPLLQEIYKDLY
From the text: (§1) We next characterized the ligand set using biochemical assays that report on ligand-dependent changes in the interaction between PPARγ LBD and FITC-labeled peptides derived from NR coregulator proteins that contribute to PPARγ-mediated transcription in cells, including the TRAP220/MED1 coactivator and NCoR1 corepressor. We used time-resolved fluorescence resonance energy transfer (TR-FRET) assays to determine relative ligand potency (or covalent reactivity) and efficacy (via increased or decreased TR-FRET ratio values). […] We performed fluorescence polarization (FP) assays to directly measure binding affinities between the PPARγ LBD and coregulator peptides.
(§2) 2 Biochemical coregulator profiling data. Time-resolved fluorescence resonance energy transfer (TR-FRET) coregulator interaction assay performed with (A) the NCoR1 corepressor peptide or (B) the TRAP220/MED1 coactivator peptide in the presence of the indicated ligands. Data represent mean ± s.e.m. […] Fluorescence polarization (FP) binding assay performed with (C) NCoR1 corepressor peptide or (D) TRAP220/MED1 coactivator peptide in the presence of the indicated ligands. Data represent mean ± s.e.m. […] (E) Pairwise correlation plots between PPARγ-mediated transcription (y-axis) and biochemical coregulator profiling data (x-axis). Spearman correlation coefficients (r p) and associated two-tailed p values are listed.
(§3) Time-resolved fluorescence resonance energy transfer (TR-FRET) coregulator peptide interaction assays were performed in low-volume black 384-well plates (Greiner) using a 23 μL final well volume. Each well contained 4 nM protein (WT or mutant 6xHis-PPARγ LBD), 1 nM LanthaScreen Elite Tb-anti-His Antibody (ThermoFisher #PV5895), and 400 nM FITC-labeled TRAP220/MED1 and NCoR1 peptide in a buffer containing 20 mM potassium phosphate (pH 7.4), 50 mM KCl, 5 mM TCEP, and 0.005% Tween 20. Ligand stocks were prepared via serial dilution in DMSO, added to wells in triplicate (10 μM highest final ligand concentration), and plates were read using BioTek Synergy Neo multimode plate reader after incubation for 1 h at 25 °C.

[2] = target: T2, PPARγ LBD / NCoR1 corepressor peptide (Homo sapiens, UniProt P37231); test: TR-FRET coregulator interaction assay, NCoR1 corepressor peptide; type: biochemical; conditions: for EC50: 4 nM 6xHis-PPARγ LBD, 400 nM FITC-NCoR1 peptide, 1 h at 25 °C, n = 3, read-out: NCoR1 TR-FRET EC50 (increase in NCoR1 peptide interaction)
T2 construct: residues 203–477 (isoform 1 numbering) with a TEV-cleavable N-terminal hexa-his-tag; made in house; host or cells: Escherichia coli BL21(DE3), pET46 plasmid
T2 sequence (P37231 203-477 isoform P37231-2): T1 sequence (P37231 203-477 isoform P37231-2)
From the text: as §1, §2, §3

[3] = target: T3, full-length human PPARγ (isoform 2) (Homo sapiens, UniProt P37231); test: Transcriptional reporter assay (3xPPRE-luciferase) in HEK293T cells transfected with full-length PPARγ; type: cell-based; conditions: for IC50: full-length PPARγ + 3xPPRE-luciferase, 18 h treatment, n = 4, three-parameter fit, read-out: cellular IC50 (decrease in PPARγ-mediated transcription)
T3 construct: full-length human PPARγ (isoform 2) expression plasmid; expressed in transfected cells; host or cells: HEK293T (ATCC #CRL-11268)
T3 sequence (P37231 1-505): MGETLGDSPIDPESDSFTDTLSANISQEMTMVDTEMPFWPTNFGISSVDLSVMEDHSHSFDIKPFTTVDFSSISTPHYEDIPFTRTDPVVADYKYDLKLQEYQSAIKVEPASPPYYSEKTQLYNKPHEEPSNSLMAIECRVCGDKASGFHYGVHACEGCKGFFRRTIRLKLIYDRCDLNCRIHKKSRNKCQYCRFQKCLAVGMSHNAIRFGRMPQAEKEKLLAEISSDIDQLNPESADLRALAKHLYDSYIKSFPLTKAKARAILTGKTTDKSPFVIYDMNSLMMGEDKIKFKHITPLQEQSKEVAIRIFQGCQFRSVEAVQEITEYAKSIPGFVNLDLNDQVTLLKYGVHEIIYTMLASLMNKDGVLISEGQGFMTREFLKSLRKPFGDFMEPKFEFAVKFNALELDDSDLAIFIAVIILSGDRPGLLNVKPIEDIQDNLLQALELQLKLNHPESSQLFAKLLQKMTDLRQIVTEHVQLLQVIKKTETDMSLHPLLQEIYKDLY
Procedure: 1 Pharmacological PPARγ ligand set used in this study. (A) Chemical structures and pharmacological properties of the ligands. […] (B) Transcriptional reporter assay performed in HEK293T cells transfected with a full-length PPARγ expression plasmid and a 3xPPRE-luciferase reporter plasmid. Data were normalized to cells treated with DMSO control, represented as mean ± s.d.
After an 18 h incubation, cells were transferred to white 384-well cell culture plates (Thermo Fisher Scientific) at 10,000 cells/well in 20 μL total volume/well. After a 4 h incubation, cells were treated in quadruplicate with 20 μL of either vehicle control (1.5% DMSO in DMEM) or a 3-fold serial dilution of ligands (1 μM highest ligand concentration). After a final 18 h incubation, cells were harvested with 20 μL of Britelite Plus (PerkinElmer), and luminescence was measured on a BioTek Synergy Neo multimode plate reader. Data were plotted in GraphPad Prism as luminescence vs ligand concentration as mean ± s.d. (n = 4) and fit to a three-parameter sigmoidal dose–response curve equation.

Structure (SMILES)	IC50 [1]	EC50 [2]	IC50 [3]	effect on TRAP220/MED1 coactivator peptide interaction, TR-FRET efficacy (in words) ([1]; TR-FRET ratio)	effect on NCoR1 corepressor peptide interaction, TR-FRET efficacy (in words) ([2]; TR-FRET ratio)	effect on PPARγ-mediated transcription (in words) ([3]; 3xPPRE-luciferase reporter)
CS(=O)(=O)c1ccc(C#N)cc1-c1cc(=O)c2c(F)cc(F)cc2[nH]1 [FX-909, 3-(5,7-difluoro-4-oxo-1,4-dihydroquinolin-2-yl)-4-(methylsulfonyl)benzonitrile]	16 nM	33 nM	1.31 nM			
O=C(Nc1ccccc1)c1cc([N+](=O)[O-])ccc1Cl [GW9662]		17 nM		relatively little change in efficacy	relatively little change in efficacy	no change in activity
N#Cc1ccc(NC(=O)c2cc([N+](=O)[O-])ccc2Cl)cn1 [SR33068]	5 nM	17 nM	1.58 nM			
